In series [1] the test system is PBMCs from healthy donors. Nature of the series: PBMC assay, dose-dependent cytokine induction. To be noted: Homo sapiens, 24 h. The class given is cell-based. Here is the method: Compounds I-A to IV were additionally tested on PBMCs from healthy donors to determine the dose-dependent cytokine induction. PBMCs from buffy coats were thawed on the day of the experiment and seeded with a density of 5×10^5 cells per well (96-well format, RPMI with 5% Human Serum+1% MEM Non-Essential Amino Acids+1% Sodium Pyruvate). In line with the experiment above, a serial dilution of the compounds was prepared and added to the cells for 24 hours. On the next days, cells were centrifuged and supernatants harvested for a cytokine readout based on a multiplex assay kit from mesoscale discovery (customized multiplex panel for the cytokines: IFNα2a, IFNβ, TNFα and IL6). Impact on cell viability was determined by CellTiter Glo2.0 from promega (Cat. G9241). Both experimental read outs were performed according to the manufacturer's instructions.

In series [2] the test system is STING signaling (IRF and NFKB-pathway activation) in THP1 Dual Cells. Nature of the series: THP-1 assay (THP1 Dual reporter cells, IRF / NFkB pathway activation). The class given is cell-based. To be noted: for EC50: Homo sapiens, THP1 Dual cells. Here is the method: THP1 Dual Cells™, were purchased from Invivogen (Cat. thpd-nfis), and used to determine the biological activity of the compounds on a molecular level and to determine downstream activation of STING signaling (IRF and NFKB-pathway activation). Briefly, cultured cells were seeded on the day of the experiment with a density of 1×10^5 cells per well (96-well format in RPMI supplemented with 25 mM HEPES, 10% heat inactivated FCS,). A serial dilution of the compounds was prepared and added to the cells for a total incubation time of 24 hours. The test items were tested in 8 concentrations to determine a dose-dependent activation of the NFKB and the IRF pathway. After 24 h cells were centrifuged and supernatants harvested for the detection of secreted alkaline phosphatase (measured by QUANTI-Blue™ detection solution; Cat. rep-qbs Invivogen) or lucia luciferase (measured by QUANTI-Luc™ reagent; Cat. rep-qlc1, Invivogen), respectively. The read outs were be performed according to the manufacturer's instructions. EC50 values were calculated using GraphPad Prism 9.

The subject of series [3] is HEK293 cells with a knocked-in STING receptor (IRF and IFNβ-pathway activation). Nature of the series: HEK STING assay with and without PFO (membrane permeabilization). The class given is cell-based. As to conditions: for EC50: Homo sapiens.
Series [4] is described as follows: Solubility in PBS and HEPES buffer. As to conditions: for solubility: aqueous buffer. The class given is physicochemical. The text has this: The primary differences are that Compound XX is less hydrophobic as a result of the introduction of oxazolyl heterocyclic ring in place of the pyrazolyl heterocyclic ring of Compound XV and as a result of the introduction of an imidazopyridine ring in place of the benzimidazole ring of Compound XV.

The mark [5] stands for this setting: IFNβ in supernatant, read-out: PBMC EC50 (μM) for IFNβ.
Where [6] appears, read: IRF pathway, read-out: THP-1 IRF EC50.
Setting [7] is: NFkB pathway, read-out: THP-1 NFkB EC50.
[8] abbreviates: HEK293, read-out: HEK STING EC50 no PFO [nM].
Where [9] appears, read: HEK293, read-out: HEK STING EC50 with PFO [nM].
Setting [10] is: HEPES Buffer pH 7.0, read-out: Solubility HEPES Buffer pH 7.0.
Setting [11] is: IFNα in supernatant, read-out: PBMC EC50 (μM) for IFNα.
The mark [12] stands for this setting: 24 h incubation, IRF pathway, read-out: THP-1 EC50 (IRF).

The structures appear in SMILES notation. Several values for one entry are separate records, joined by “and”; a condition that tells them apart may be missing. Identical values can stand only once. Like-named read-outs stand apart in the source and are kept apart here. A value given as a limit tells only on which side of the number the result lay.

The EC50 is the concentration giving half of the maximal effect. With `CCn1nc(C)cc1C(=O)Nc1nc2cc(C(N)=O)cc(OC)c2n1C/C=C/Cn1c(NC(=O)c2cc(C)nn2CC)nc2cc(C(N)=O)cc(OCCCC(=O)NNC)c21` [I-C], in series [1] (setting [5]), the concentration giving a half-maximal response (EC50) worked out at 1.1 µM.
`CCc1nc(C)oc1C(=O)Nc1nc2cc(CO)cc(OC)c2n1C/C=C/Cn1c(NC(=O)c2oc(C)nc2CC)nc2cc(C(N)=O)cc(OCCCN3CCOCC3)c21` [Compound XLII, (E)-N-(5-carbamoyl-1-(4-(2-(4-ethyl-2-methyloxazole-5-carboxamido)-5-(hydroxymethyl)-7-methoxy-1H-benzo[d]imidazol-1-yl)but-2-en-1-yl)-7-(3-morpholinopropoxy)-1H-benzo[d]imidazol-2-yl)-4-ethyl-2-methyloxazole-5-carboxamide]: the concentration for a half-maximal effect (EC50) in series [2] (setting [6]) is 333 nM; in series [2] (setting [7]), 290 nM; in series [3] (setting [8]), 26 nM; in series [3] (setting [9]), 14 nM.
Consider `CCn1nc(C)cc1C(=O)Nc1nc2cc(CO)cc(OC)c2n1C/C=C/Cn1c(NC(=O)c2cc(C)nn2CC)nc2cc(C(N)=O)cc(OCCCN3CCOCC3)c21` [Compound XL, (E)-2-(1-ethyl-3-methyl-1H-pyrazole-5-carboxamido)-1-(4-(2-(1-ethyl-3-methyl-1H-pyrazole-5-carboxamido)-5-(hydroxymethyl)-7-methoxy-1H-benzo[d]imidazol-1-yl)but-2-en-1-yl)-7-(3-morpholinopropoxy)-1H-benzo[d]imidazole-5-carboxamide], for which the “THP-1 IRF MEC” value in series [2] (Activity w/o permeabilization) is listed as 78 nM. In series [2] (Activity w/o permeabilization), the “THP-1 NFkB MEC” value is 78 nM. For the same compound, the half-maximal effective concentration (EC50) in series [2] (setting [6]) amounted to 221 nM; in series [2] (setting [7]), 149 nM; in series [3] (HEK293, Activity w/o permeabilization, read-out: HEK IRF EC50), 0.53 nM; in series [3] (HEK293, Activity with permeabilization, read-out: HEK IRF EC50), 1.11 nM; in series [3] (setting [8]) it was 2.7 nM; in series [3] (setting [9]) it was 2.7 nM. In addition, the “HEK IFNβ MEC” value in series [3] (Activity w/o permeabilization) was 0.8 nM; in series [3] (Activity with permeabilization), 4.0 nM.
Broadly, the solubility is how much of the substance goes into solution per volume. For the compound `CCc1nc(C)oc1C(=O)Nc1nc2cc(C(N)=O)cnc2n1C/C=C/Cn1c(NC(=O)c2oc(C)nc2CC)nc2cc(C(N)=O)cc(OCCCN(C)N)c21` [Compound XX], the “Solubility versus Compound XV” value in series [4] (Compound XX compared with Compound XV) was “slightly better solubility”. The solubility is 11.5 µM and 10 µg/mL in series [4] (setting [10]); 3.6 µM in series [4] (PBS Buffer pH 7.4, lower limit of quantitation 1 μM, read-out: Solubility PBS Buffer pH 7.4); 3 µg/mL in series [4] (PBS Buffer pH 7.4, read-out: Solubility PBS Buffer pH 7.4).
Take `CCn1nc(C)cc1C(=O)Nc1nc2cc(C(N)=O)cc(OC)c2n1C/C=C/Cn1c(NC(=O)c2cc(C)nn2CC)nc2cc(C(N)=O)cc(OCCCC(=O)N(C)N)c21` [I-B]: the EC50 in series [1] (setting [5]) was determined as 0.403 µM.
Consider `CCn1nc(C)cc1C(=O)Nc1nc2cc(C(N)=O)cc(OC)c2n1C/C=C/Cn1c(NC(=O)c2cc(C)nn2CC)nc2cc(C(N)=O)cc(OCCCC(=O)N(N)Cc3ccc(N)cc3)c21` [I-E], for which the concentration giving a half-maximal response (EC50) came to 0.762 µM in series [1] (setting [11]) and 0.139 µM in series [1] (setting [5]).
On the same counts, the results for `CCn1nc(C)cc1C(=O)Nc1nc2cc(C(N)=O)cc(OC)c2n1C/C=C/Cn1c(NC(=O)c2cc(C)nn2CC)nc2cc(C(N)=O)cc(OCCCC(=O)N(C)O)c21` [I-H] are 0.665 µM and 0.249 µM.
Take `CCn1nc(C)cc1C(=O)Nc1nc2cc(C(N)=O)cc(OC)c2n1C/C=C/Cn1c(NC(=O)c2cc(C)nn2CC)nc2cc(C(N)=O)cc(OCCCC(=O)NNCc3ccc(N)cc3)c21` [I-F]: in series [1] (setting [5]), the 50% effective concentration (EC50) came out at 0.209 µM.
Consider `CCn1nc(C)cc1C(=O)Nc1nc2cc(C(=O)NN)cc(OC)c2n1C/C=C/Cn1c(NC(=O)c2cc(C)nn2CC)nc2cc(C(N)=O)cc(OCCCN3CCOCC3)c21` [II-A], for which the concentration for a half-maximal effect (EC50) worked out at 84.9 nM in series [2] (setting [12]), 0.875 µM in series [1] (setting [11]) and 0.403 µM in series [1] (setting [5]).
In the case of `CCn1nc(C)cc1C(=O)Nc1nc2cc(CN)cc(OC)c2n1C/C=C/Cn1c(NC(=O)c2cc(C)nn2CC)nc2cc(C(N)=O)cc(OCCCN3CCOCC3)c21` [Compound XLI, 1-[(2E)-4-[5-(Aminomethyl)-2-(1-ethyl-3-methyl-1H-pyrazole-5-amido)-7-methoxy-1H-1,3-benzodiazol-1-yl]but-2-en-1-yl]-2-(1-ethyl-3-methyl-1H-pyrazole-5-amido)-7-[3-(morpholin-4-yl)propoxy]-1H-1,3-benzodiazole-5-carboxamide], the EC50 in series [2] (setting [6]) worked out at 811 nM; in series [2] (setting [7]), 364 nM; in series [3] (setting [8]) it was 38 nM; in series [3] (setting [9]) it was 25 nM.
With `CCn1nc(C)cc1C(=O)Nc1nc2cc(C(=O)N(C)N)cc(OC)c2n1C/C=C/Cn1c(NC(=O)c2cc(C)nn2CC)nc2cc(C(N)=O)cc(OCCCN3CCOCC3)c21` [II-C], the EC50 in series [2] (setting [12]) stood at 267 nM; in series [1] (setting [11]), 1.15 µM; in series [1] (setting [5]), 0.91 µM.
The matching figures for `CCn1nc(C)cc1C(=O)Nc1nc2cc(C(N)=O)cc(OC)c2n1C/C=C/Cn1c(NC(=O)c2cc(C)nn2CC)nc2cc(C(N)=O)cc(OCCCC(=O)N(N)CCN)c21` [I-J]: 23.4 nM, 0.321 µM and 0.293 µM.
As for `CCn1nc(C)cc1C(=O)Nc1nc2cc(C(N)=O)cc(OC)c2n1C/C=C/Cn1c(NC(=O)c2cc(C)nn2CC)nc2cc(C(N)=O)cc(OCCCN3CCOCC3)c21` [diABZI, reference compound], the EC50 is 16 nM in series [2] (setting [6]), 14 nM in series [2] (setting [7]), 1.6 nM in series [3] (setting [8]) and 1.2 nM in series [3] (setting [9]).
`CCn1nc(C)cc1C(=O)Nc1nc2cc(C(N)=O)cc(OC)c2n1C/C=C/Cn1c(NC(=O)c2cc(C)nn2CC)nc2cc(C(N)=O)cc(OCCCC(=O)N(C)OC)c21` [I-I]: the EC50 in series [1] (setting [11]) is 0.41 µM; in series [1] (setting [5]), 0.212 µM.
`CCn1nc(C)cc1C(=O)Nc1nc2cc(C(N)=O)cc(OC)c2n1C/C=C/Cn1c(NC(=O)c2cc(C)nn2CC)nc2cc(C(N)=O)cc(OCCCC(=O)N3CCN(N)CC3)c21` [I-K]: the concentration giving a half-maximal response (EC50) worked out at 9.74 nM in series [2] (setting [12]), 0.302 µM in series [1] (setting [11]) and 0.234 µM in series [1] (setting [5]).
For `CCn1nc(C)cc1C(=O)Nc1nc2cc(C(N)=O)cc(OC)c2n1C/C=C/Cn1c(NC(=O)c2cc(C)nn2CC)nc2cc(C(N)=O)cc(OCCCC(=O)NO)c21` [I-G], the concentration giving a half-maximal response (EC50) in series [1] (setting [11]) is 2.02 µM; in series [1] (setting [5]), 0.311 µM.
In the case of `CCn1nc(C)cc1C(=O)Nc1nc2cc(C(N)=O)cc(OC)c2n1C/C=C/Cn1c(NC(=O)c2cc(C)nn2CC)nc2cc(C(N)=O)cc(OCCCN(C)N)c21` [Compound XV], the “Solubility PBS Buffer pH 7.4” value in series [4] (PBS Buffer pH 7.4) is listed as “<LOQ”; in series [4] (PBS Buffer pH 7.4, lower limit of quantitation 1 μM), “<LOQ^#”. Moreover, in series [4] (setting [10]), the solubility is 5.9 µM and 5 µg/mL.
Regarding `CCn1nc(C)cc1C(=O)Nc1nc2cc(C(N)=O)cc(OC)c2n1C/C=C/Cn1c(NC(=O)c2cc(C)nn2CC)nc2cc(C(N)=O)cc(OCCCC(=O)NN)c21` [I-A], the values for the 50% effective concentration (EC50) in series [1] (setting [11]) and in series [1] (setting [5]) were 0.334 µM and 1.25 µM, respectively.
